Assay results reported in ChEMBL document CHEMBL4130493, “An insight into the biological activities of heterocyclic-fatty acid hybrid molecules” (Eur J Med Chem, 2017).
In brackets after ≈: the same amount, converted by molar mass.

Columns and labels:
Hep 3B2 = test: Cytotoxicity in human Hep3B cells incubated for 48 hrs by MTT assay; assay type: functional, cell-based
HeLa = test: Cytotoxicity in human HeLa cells incubated for 48 hrs by MTT assay; assay type: functional, cell-based
MCF7 = test: Cytotoxicity in human MCF7 cells incubated for 48 hrs by MTT assay; assay type: functional, cell-based; settings: MCF7, 48 h
Candida albicans [1] = test: Antifungal activity against Candida albicans IOA-109; assay type: functional
Candida albicans [2] = test: Antifungal activity against Candida albicans IOA-109 at 50 ug/disc incubated for 5 to 6 days by disc diffusion method; assay type: functional; settings: read-out: DIZ
Staphylococcus aureus [3] = test: Antibacterial activity against Staphylococcus aureus at 50 ug/disc incubated for 18 hrs by disc diffusion method; assay type: functional; settings: read-out: DIZ
[4] = test system: Mycobacterium tuberculosis; test: Antimycobacterial activity against Mycobacterium tuberculosis XDR-TB; assay type: functional
[5] = test system: Mycobacterium tuberculosis; test: Antimycobacterial activity against Mycobacterium tuberculosis MDR-TB; assay type: functional
Candida albicans [6] = test: Antifungal activity against Candida albicans IOA-109 incubated for 18 to 48 hrs; assay type: functional
Klebsiella pneumoniae = test: Antibacterial activity against Klebsiella pneumoniae incubated for 24 hrs by filter paper disc method; assay type: functional
Escherichia coli [7] = test: Antibacterial activity against Escherichia coli K-12 incubated for 24 hrs by filter paper disc method; assay type: functional
Bacillus subtilis [8] = test: Antibacterial activity against Bacillus subtilis MTCC 121 incubated for 24 hrs by filter paper disc method; assay type: functional
Staphylococcus aureus [9] = test: Antibacterial activity against Staphylococcus aureus MSSA 22 incubated for 24 hrs by filter paper disc method; assay type: functional
Pseudomonas aeruginosa = test: Antibacterial activity against Pseudomonas aeruginosa incubated for 24 hrs by filter paper disc method; assay type: functional
[10] = test system: Mycobacterium tuberculosis; test: Antimycobacterial activity against Mycobacterium tuberculosis H37Rv assessed as reduction in mycobacterial growth incubated for 5 days by MTT assay; assay type: functional; settings: 120 h
Mycobacterium avium = test: Antimycobacterial activity against Mycobacterium avium; assay type: functional
Candida albicans [11] = test: Antifungal activity against Candida albicans by disc diffusion method; assay type: functional
Salmonella typhimurium = test: Antibacterial activity against Salmonella typhimurium MTCC98 by disc diffusion method; assay type: functional, Salmonella enterica subsp. enterica serovar Typhimurium
Staphylococcus aureus [12] = test: Antibacterial activity against Staphylococcus aureus MSSA 22 by disc diffusion method; assay type: functional
Bacillus subtilis [13] = test: Antibacterial activity against Bacillus subtilis ATCC 6051 by disc diffusion method; assay type: functional
Escherichia coli [14] = test: Antibacterial activity against Escherichia coli K-12 by disc diffusion method; assay type: functional

CCCC/C=C\CCC(O)CCCCCCC1=NNC2SCC(c3ccccc3)=NN12 (configuration not stated)
IC50 (Hep 3B2): 7.36 µM | IC50 (HeLa): 6 µM | IC50 (MCF7): 8.8 µM

C=CCCCCCCCCc1nc2ccccc2s1
diameter of the inhibition zone (DIZ) (Candida albicans [1]): 16 - 20 mm

CCCCCCCC/C=C\CCCCCCCC(=O)n1nnc2ccccc21
zone of inhibition at 50 µg/disc (Candida albicans [2]): 13 to 15 mm | zone of inhibition at 50 µg/disc (Staphylococcus aureus [3]): 13 to 15 mm

CCCCCCCCNc1cncc(C(=O)Nc2ccccc2)n1
MIC [4]: 16 to 32 µM (≈ 5.22 to 10.4 µg/mL) | MIC [5]: 16 to 32 µM (≈ 5.22 to 10.4 µg/mL)

CCCCC/C=C\CCC(O)CCCCCCCc1nc2ccccc2c(=O)o1 (configuration not stated)
diameter of the inhibition zone (DIZ) (Candida albicans [6]): 17 - 20 mm | diameter of the inhibition zone (DIZ) (Klebsiella pneumoniae): 15 - 19 mm | diameter of the inhibition zone (DIZ) (Escherichia coli [7]): 15 - 19 mm | diameter of the inhibition zone (DIZ) (Bacillus subtilis [8]): 15 - 19 mm | diameter of the inhibition zone (DIZ) (Staphylococcus aureus [9]): 15 - 19 mm

CCCCCCCC/C=C\CCCCCCCc1nc2ccccc2s1
diameter of the inhibition zone (DIZ) (Candida albicans [1]): 16 - 20 mm

CCCCCCC/C=C\CC(O)CCCCCCC(=O)n1[nH]c(=O)c2ccccc2c1=O (configuration not stated)
diameter of the inhibition zone (DIZ) (Pseudomonas aeruginosa): 10 - 18 mm | diameter of the inhibition zone (DIZ) (Escherichia coli [7]): 15 - 18 mm | diameter of the inhibition zone (DIZ) (Bacillus subtilis [8]): 10 - 18 mm | diameter of the inhibition zone (DIZ) (Staphylococcus aureus [9]): 10 - 18 mm

CCCCCCCCc1cn(CC(=O)OCC)nn1
MIC [10]: 0.5 µg/mL (≈ 1.87 µM) | MIC (Mycobacterium avium): 0.5 µg/mL (≈ 1.87 µM)

CCCCCCCCCCCCCCCc1ccc(CCCCCCCCCCCCCCC)o1
diameter of the inhibition zone (DIZ) (Candida albicans [11]): 27 mm

C=CCCCCCCCCC(=O)n1nnc2ccccc21
zone of inhibition at 50 µg/disc (Candida albicans [2]): 13 to 15 mm | zone of inhibition at 50 µg/disc (Staphylococcus aureus [3]): 13 to 15 mm

C=CCCCCCCCCc1nnc(N)o1
diameter of the inhibition zone (DIZ) (Salmonella typhimurium): 7 - 13 mm | diameter of the inhibition zone (DIZ) (Staphylococcus aureus [12]): 7 - 13 mm | diameter of the inhibition zone (DIZ) (Bacillus subtilis [13]): 7 - 13 mm | diameter of the inhibition zone (DIZ) (Escherichia coli [14]): 7 - 13 mm

C=CCCCCCCCCC1=NNC2SCC(c3ccccc3)=NN12 (configuration not stated)
IC50 (Hep 3B2): 7.4 µM | IC50 (HeLa): 8.01 µM | IC50 (MCF7): 10.3 µM

CCCCCC(O)/C=C\CCCCCCCc1ccc(CCCCCCC/C=C\C(O)CCCCC)o1 (configuration not stated)
diameter of the inhibition zone (DIZ) (Candida albicans [11]): 27 mm

CCCCCCC(O)C/C=C\CCCCCCCC1=NNC2SCC(c3ccccc3)=NN12 (configuration not stated)
IC50 (Hep 3B2): 6.5 µM | IC50 (HeLa): 8.83 µM | IC50 (MCF7): 8.59 µM

CCCCCCCC(O)CC/C=C\CCCCC(=O)n1[nH]c(=O)c2ccccc2c1=O (configuration not stated)
diameter of the inhibition zone (DIZ) (Pseudomonas aeruginosa): 10 - 18 mm | diameter of the inhibition zone (DIZ) (Escherichia coli [7]): 15 - 18 mm | diameter of the inhibition zone (DIZ) (Bacillus subtilis [8]): 10 - 18 mm | diameter of the inhibition zone (DIZ) (Staphylococcus aureus [9]): 10 - 18 mm

CCCCCCC(O)C/C=C\CCCCCCc1nc2ccccc2c(=O)o1 (configuration not stated)
diameter of the inhibition zone (DIZ) (Candida albicans [6]): 17 - 20 mm | diameter of the inhibition zone (DIZ) (Klebsiella pneumoniae): 15 - 19 mm | diameter of the inhibition zone (DIZ) (Escherichia coli [7]): 15 - 19 mm | diameter of the inhibition zone (DIZ) (Bacillus subtilis [8]): 15 - 19 mm | diameter of the inhibition zone (DIZ) (Staphylococcus aureus [9]): 15 - 19 mm

CCCCC/C=C\CCC(O)CCCCCCCC(=O)N1N=C(C)CC1=O (configuration not stated)
diameter of the inhibition zone (DIZ) (Pseudomonas aeruginosa): 10 - 18 mm | diameter of the inhibition zone (DIZ) (Escherichia coli [7]): 10 - 18 mm | diameter of the inhibition zone (DIZ) (Bacillus subtilis [8]): 10 - 18 mm | diameter of the inhibition zone (DIZ) (Staphylococcus aureus [9]): 10 - 18 mm

CCCCC/C=C\CCC(O)CCCCCCCC(=O)Nn1c(C)ccc1C (configuration not stated)
diameter of the inhibition zone (DIZ) (Candida albicans [6]): 17 - 20 mm | diameter of the inhibition zone (DIZ) (Klebsiella pneumoniae): 15 - 19 mm | diameter of the inhibition zone (DIZ) (Escherichia coli [7]): 15 - 19 mm | diameter of the inhibition zone (DIZ) (Bacillus subtilis [8]): 15 - 19 mm | diameter of the inhibition zone (DIZ) (Staphylococcus aureus [9]): 15 - 19 mm

CCCCCCC(O)C/C=C\CCCCCCC(=O)Nn1c(C)ccc1C (configuration not stated)
diameter of the inhibition zone (DIZ) (Candida albicans [6]): 17 - 20 mm | diameter of the inhibition zone (DIZ) (Klebsiella pneumoniae): 15 - 19 mm | diameter of the inhibition zone (DIZ) (Escherichia coli [7]): 15 - 19 mm | diameter of the inhibition zone (DIZ) (Bacillus subtilis [8]): 15 - 19 mm | diameter of the inhibition zone (DIZ) (Staphylococcus aureus [9]): 15 - 19 mm

CCCCCCC(O)C/C=C\CCCCCCCc1nnc(N)o1 (configuration not stated)
diameter of the inhibition zone (DIZ) (Salmonella typhimurium): 13 - 18 mm | diameter of the inhibition zone (DIZ) (Staphylococcus aureus [12]): 13 - 18 mm | diameter of the inhibition zone (DIZ) (Bacillus subtilis [13]): 13 - 18 mm | diameter of the inhibition zone (DIZ) (Escherichia coli [14]): 13 - 18 mm

CCCCCCCCCCCCCCCc1nc2ccccc2s1
diameter of the inhibition zone (DIZ) (Candida albicans [1]): 16 - 20 mm
